We go through 1 compound from patent US20080167384A1, “Use of Zeaxanthin For the Treatment of Diseases of the Peripheral Retina” (priority 2005, published 2008).

The test in a line: Trial of zeaxanthin supplementation: macular pigment density monitored by heterochromatic flicker photometry (HCFP). In kind it is in vivo. The following applies: Zeaxanthin 20 mg/day, 6-12 months. The method, then:
The usefulness of zeaxanthin for the purposes of the present invention can be seen from the results of a trial with a duration of 6-12 months carried out with 46 subjects which were randomized to two treatment groups: Zeaxanthin, 20 mg/day (n=23), and Placebo (n=23). Macular pigment density (MPD) during this trial was monitored monthly using heterochromatic flicker photometry (HCFP) by independently measuring luminances at central and eccentric (5°=reference) locations. MPD is then calculated by subtracting the luminance at the reference (=eccentric) location from the luminance at the retinal centre.

For the compound `CC1=C(/C=C/C(C)=C/C=C/C(C)=C/C=C/C=C(C)/C=C/C=C(C)/C=C/C2=C(C)C[C@@H](O)CC2(C)C)C(C)(C)C[C@H](O)C1` [zeaxanthin], the “rise of luminance at the eccentric reference location” value (HCFP, eccentric (5°) reference location) is “approximately 8%”. The “rise of luminance at the central location” value (HCFP, retinal centre) is given as “approximately 8%”. The “increase of macular pigment density (MPD) computed with the pre-supplementation eccentric reference luminance” value (actual central luminances minus pre-supplementation eccentric reference luminance) was “about 11%”.
